Experimental data taken from ChEMBL document CHEMBL4715697, “Synthesis and biological activity of benzamide DNA minor groove binders” (2016).

Legend:
Type in all cases: functional
OVCAR-5 [1] = assay: Growth inhibition of human OVCAR-5 cells assessed as cell growth at 1 uM incubated for 48 hrs by sulforhodamine B assay relative to control; conditions: read-out: Activity
OVCAR-4 [2] = assay: Growth inhibition of human OVCAR-4 cells assessed as cell growth at 0.1 uM incubated for 48 hrs by sulforhodamine B assay relative to control; conditions: read-out: Activity
HCC 2998 [3] = assay: Growth inhibition of human HCC 2998 cells assessed as cell growth at 1 uM incubated for 48 hrs by sulforhodamine B assay relative to control; conditions: read-out: Activity
CAKI-1 = assay: Growth inhibition of human CAKI-1 cells incubated for 48 hrs by sulforhodamine B assay
COLO 205 = assay: Growth inhibition of human COLO 205 cells assessed as cell growth at 0.01 uM incubated for 48 hrs by sulforhodamine B assay relative to control; conditions: read-out: Activity
HT-29 [4] = assay: Growth inhibition of human HT-29 cells assessed as cell growth at 100 uM incubated for 48 hrs by sulforhodamine B assay relative to control; conditions: read-out: Activity
UO-31 [5] = assay: Growth inhibition of human UO-31 cells assessed as cell growth at 0.01 uM incubated for 48 hrs by sulforhodamine B assay relative to control; conditions: read-out: Activity
UACC-257 [6] = assay: Growth inhibition of human UACC-257 cells assessed as cell growth at 0.1 uM incubated for 48 hrs by sulforhodamine B assay relative to control; conditions: read-out: Activity
EKVX = assay: Growth inhibition of human EKVX cells assessed as cell growth at 1 uM incubated for 48 hrs by sulforhodamine B assay relative to control; conditions: read-out: Activity
SK-MEL-28 [7] = assay: Growth inhibition of human SK-MEL-28 cells assessed as cell growth at 100 uM incubated for 48 hrs by sulforhodamine B assay relative to control; conditions: read-out: Activity
HT-29 [8] = assay: Growth inhibition of human HT-29 cells assessed as cell growth at 0.1 uM incubated for 48 hrs by sulforhodamine B assay relative to control; conditions: read-out: Activity
M14 = assay: Growth inhibition of human M14 cells assessed as cell growth at 0.1 uM incubated for 48 hrs by sulforhodamine B assay relative to control; conditions: read-out: Activity
SR = assay: Growth inhibition of human SR cells assessed as cell growth at 0.01 uM incubated for 48 hrs by sulforhodamine B assay relative to control; conditions: read-out: Activity
UACC-257 [9] = assay: Growth inhibition of human UACC-257 cells incubated for 48 hrs by sulforhodamine B assay
SK-MEL-2 = assay: Growth inhibition of human SK-MEL-2 cells assessed as cell growth at 0.1 uM incubated for 48 hrs by sulforhodamine B assay relative to control; conditions: read-out: Activity
OVCAR-4 [10] = assay: Growth inhibition of human OVCAR-4 cells assessed as cell growth at 1 uM incubated for 48 hrs by sulforhodamine B assay relative to control; conditions: read-out: Activity
NCI-H522 = assay: Growth inhibition of human NCI-H522 cells assessed as cell growth at 100 uM incubated for 48 hrs by sulforhodamine B assay relative to control; conditions: read-out: Activity
NCI-H322M = assay: Growth inhibition of human NCI-H322M cells assessed as cell growth at 100 uM incubated for 48 hrs by sulforhodamine B assay relative to control; conditions: read-out: Activity
OVCAR-3 = assay: Growth inhibition of human OVCAR-3 cells assessed as cell growth at 100 uM incubated for 48 hrs by sulforhodamine B assay relative to control; conditions: read-out: Activity
UO-31 [11] = assay: Growth inhibition of human UO-31 cells assessed as cell growth at 1 uM incubated for 48 hrs by sulforhodamine B assay relative to control; conditions: read-out: Activity
LOX IMVI = assay: Growth inhibition of human LOX IMVI cells assessed as cell growth at 0.01 uM incubated for 48 hrs by sulforhodamine B assay relative to control; conditions: read-out: Activity
BT-549 = assay: Growth inhibition of human BT-549 cells assessed as cell growth at 0.1 uM incubated for 48 hrs by sulforhodamine B assay relative to control; conditions: read-out: Activity
NCI-H23 = assay: Growth inhibition of human NCI-H23 cells assessed as cell growth at 100 uM incubated for 48 hrs by sulforhodamine B assay relative to control; conditions: read-out: Activity
CCRF-CEM = assay: Growth inhibition of human CCRF-CEM cells assessed as cell growth at 0.01 uM incubated for 48 hrs by sulforhodamine B assay relative to control; conditions: read-out: Activity
MDA-MB-468 = assay: Growth inhibition of human MDA-MB-468 cells assessed as cell growth at 100 uM incubated for 48 hrs by sulforhodamine B assay relative to control; conditions: read-out: Activity
RXF 393 = assay: Growth inhibition of human RXF 393 cells assessed as cell growth at 100 uM incubated for 48 hrs by sulforhodamine B assay relative to control; conditions: read-out: Activity
A498 = assay: Growth inhibition of human A498 cells assessed as cell growth at 1 uM incubated for 48 hrs by sulforhodamine B assay relative to control; conditions: read-out: Activity
ACHN = assay: Growth inhibition of human ACHN cells assessed as cell growth at 0.01 uM incubated for 48 hrs by sulforhodamine B assay relative to control; conditions: read-out: Activity
OVCAR-5 [12] = assay: Growth inhibition of human OVCAR-5 cells assessed as cell growth at 0.1 uM incubated for 48 hrs by sulforhodamine B assay relative to control; conditions: read-out: Activity
SK-MEL-28 [13] = assay: Growth inhibition of human SK-MEL-28 cells incubated for 48 hrs by sulforhodamine B assay
IGROV-1 = assay: Growth inhibition of human IGROV-1 cells assessed as cell growth at 0.01 uM incubated for 48 hrs by sulforhodamine B assay relative to control; conditions: read-out: Activity
OVCAR-5 [14] = assay: Growth inhibition of human OVCAR-5 cells assessed as cell growth at 0.01 uM incubated for 48 hrs by sulforhodamine B assay relative to control; conditions: read-out: Activity
HCC 2998 [15] = assay: Growth inhibition of human HCC 2998 cells assessed as cell growth at 100 uM incubated for 48 hrs by sulforhodamine B assay relative to control; conditions: read-out: Activity
U-251 = assay: Growth inhibition of human U-251 cells assessed as cell growth at 1 uM incubated for 48 hrs by sulforhodamine B assay relative to control; conditions: read-out: Activity
MDA-MB-231 = assay: Growth inhibition of human MDA-MB-231 cells assessed as cell growth at 1 uM incubated for 48 hrs by sulforhodamine B assay relative to control; conditions: read-out: Activity
SK-MEL-28 [16] = assay: Growth inhibition of human SK-MEL-28 cells assessed as cell growth at 0.01 uM incubated for 48 hrs by sulforhodamine B assay relative to control; conditions: read-out: Activity
SNB-19 = assay: Growth inhibition of human SNB-19 cells incubated for 48 hrs by sulforhodamine B assay
[17] = read-out: LC50 (the source's name)
[18] = read-out: pLC50 (the source's name) (converted)

For `CC(=O)Nc1cc(CO[Si](C)(C)C(C)(C)C)cc(NC(=O)c2ccc(C(=O)Nc3cccc(NC(=O)CCCN(C)C)c3)cc2)c1`, the growth at 1 µM (OVCAR-5 [1]) was 89%, the growth at 0.1 µM (OVCAR-4 [2]) was 96% and the growth at 1 µM (HCC 2998 [3]) was 94%. The GI50 (CAKI-1; read-out: GI50) was greater than 75 µM, the CC50 (CAKI-1; [17]) was greater than 75 µM and the TGI (CAKI-1; read-out: TGI) was greater than 75 µM. For the same molecule, the GI50 (CAKI-1; read-out: pGI50 (converted)) was greater than 75.9 µM, the CC50 (CAKI-1; [18]) was greater than 75.9 µM and the TGI (CAKI-1; read-out: pTGI) was greater than 75.9 µM. The growth at 0.01 µM (COLO 205) was 101%, the growth at 100 µM (HT-29 [4]) was 100% and the growth at 0.01 µM (UO-31 [5]) was 83%. It also gave a growth at 0.1 µM (UACC-257 [6]) of 90%, a growth at 1 µM (EKVX) of 89% and a growth at 100 µM (SK-MEL-28 [7]) of 74%. The growth at 0.1 µM (HT-29 [8]) was 103%, the growth at 0.1 µM (M14) was 95% and the growth at 0.01 µM (SR) was 106%. The GI50 (UACC-257 [9]; read-out: GI50) was greater than 75 µM, the LC50 (UACC-257 [9]; read-out: LC50) was greater than 75 µM and the TGI (UACC-257 [9]; read-out: TGI) was greater than 75 µM. It also gave a GI50 (UACC-257 [9]; read-out: pGI50 (converted)) greater than 75.9 µM, an LC50 (UACC-257 [9]; read-out: pLC50 (converted)) greater than 75.9 µM and a TGI (UACC-257 [9]; read-out: pTGI) greater than 75.9 µM. For the same molecule, the growth at 0.1 µM (SK-MEL-2) was 102%, the growth at 1 µM (OVCAR-4 [10]) was 100% and the growth at 100 µM (NCI-H522) was 86%. It also gave a growth at 100 µM (NCI-H322M) of 74%, a growth at 100 µM (OVCAR-3) of 105% and a growth at 1 µM (UO-31 [11]) of 105%. It also gave a growth at 0.01 µM (LOX IMVI) of 101%, a growth at 0.1 µM (BT-549) of 93% and a growth at 100 µM (NCI-H23) of 84%. It also gave a growth at 0.01 µM (CCRF-CEM) of 97%, a growth at 100 µM (MDA-MB-468) of 103% and a growth at 100 µM (RXF 393) of 83%. It also gave a growth at 1 µM (A498) of 48%, a growth at 0.01 µM (ACHN) of 100% and a growth at 0.1 µM (OVCAR-5 [12]) of 93%. It also gave a GI50 (SK-MEL-28 [13]; read-out: GI50) greater than 75 µM, an LC50 (50% lethal concentration) (SK-MEL-28 [13]; read-out: LC50) greater than 75 µM and a TGI (SK-MEL-28 [13]; read-out: TGI) greater than 75 µM. It also gave a GI50 (SK-MEL-28 [13]; read-out: pGI50 (converted)) greater than 75.9 µM, an LC50 (50% lethal concentration) (SK-MEL-28 [13]; read-out: pLC50 (converted)) greater than 75.9 µM and a TGI (SK-MEL-28 [13]; read-out: pTGI) greater than 75.9 µM. It also gave a growth at 0.01 µM (IGROV-1) of 99%, a growth at 0.01 µM (OVCAR-5 [14]) of 93% and a growth at 100 µM (HCC 2998 [15]) of 93%. It also gave a growth at 1 µM (U-251) of 91%, a growth at 1 µM (MDA-MB-231) of 106% and a growth at 0.01 µM (SK-MEL-28 [16]) of 98%. For the same molecule, the GI50 (SNB-19; read-out: GI50) was greater than 75 µM, the CC50 (SNB-19; [17]) was greater than 75 µM and the TGI (SNB-19; read-out: TGI) was greater than 75 µM. It also gave a GI50 (SNB-19; read-out: pGI50 (converted)) greater than 75.9 µM, a CC50 (SNB-19; [18]) greater than 75.9 µM and a TGI (SNB-19; read-out: pTGI) greater than 75.9 µM.
